The record followed here is patent US8598202B2, “Aryl-hydroxyethylamino-pyrimidines and triazines as modulators of fatty acid amide hydrolase” (Janssen Pharmaceutica NV, priority 2008, dated 2013).

Where a name gives a salt, the structure may show the parent alone.

The target of the first assay is T1, Rat FAAH-1 (Rattus norvegicus, UniProt P97612).
T1 sequence (P97612 1-579): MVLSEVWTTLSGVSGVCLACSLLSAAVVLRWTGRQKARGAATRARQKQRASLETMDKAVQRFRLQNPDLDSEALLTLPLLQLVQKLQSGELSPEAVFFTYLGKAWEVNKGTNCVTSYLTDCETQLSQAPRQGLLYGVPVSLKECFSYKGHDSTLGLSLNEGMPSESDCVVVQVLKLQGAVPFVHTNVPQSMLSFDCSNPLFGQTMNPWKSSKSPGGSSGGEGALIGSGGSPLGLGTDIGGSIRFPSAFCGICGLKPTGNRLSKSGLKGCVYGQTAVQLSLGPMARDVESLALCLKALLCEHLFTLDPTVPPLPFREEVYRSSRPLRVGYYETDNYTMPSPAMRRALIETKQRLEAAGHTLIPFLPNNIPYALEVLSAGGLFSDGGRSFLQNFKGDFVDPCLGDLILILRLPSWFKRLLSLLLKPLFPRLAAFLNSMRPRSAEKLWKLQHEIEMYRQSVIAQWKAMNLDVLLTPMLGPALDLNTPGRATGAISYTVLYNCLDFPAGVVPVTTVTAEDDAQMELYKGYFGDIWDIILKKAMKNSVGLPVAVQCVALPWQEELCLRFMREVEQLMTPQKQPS
Description: Assay Method 2: rat FAAH-1 assay, 3H-anandamide hydrolysis in homogenate of SK-N-MC cells transfected with rat FAAH.
Details: not given
In turn, `COc1ccc(C(O)CNc2cc(-c3ccc(C(F)(F)F)c(Cl)c3)ncn2)cc1Cl` (centres unmarked) [Example 203, 1-(3-Chloro-4-methoxyphenyl)-2-({6-[3-chloro-4-(trifluoromethyl)phenyl]pyrimidin-4-yl}amino)ethanol] had a half-maximal inhibitory concentration (IC50) of 200 nM.
On the same count and under the same terms, then `NS(=O)(=O)c1ccc(-c2cc(NC[C@H](O)c3ccccc3)ncn2)cc1` [Example 81, 4-(6-{[(2R)-2-Hydroxy-2-phenylethyl]amino}pyrimidin-4-yl)benzenesulfonamide], with 492 nM; and `CNc1nc(NC[C@H](O)c2ccccc2)cc(-c2ccc(C(F)(F)F)c(Cl)c2)n1` [Example 141, (1R)-2-({6-[3-Chloro-4-(trifluoromethyl)phenyl]-2-(methylamino)pyrimidin-4-yl}amino)-1-phenylethanol trifluoroacetic acid salt], with 5 nM; and `OC(CNc1cc(-c2ccc(C(F)(F)F)c(Cl)c2)ncn1)c1cccc(SC(F)(F)F)c1` (centres unmarked) [Example 198, 2-({6-[3-chloro-4-(trifluoromethyl)phenyl]pyrimidin-4-yl}amino)-1-[3-[(trifluoromethyl)sulfanyl]phenyl]ethanol], with 25 nM.
`Cc1cc(-c2cc(NC[C@H](O)c3ccccc3)ncn2)cnc1F` [Example 75, (1R)-2-{[6-(6-Fluoro-5-methylpyridin-3-yl)pyrimidin-4-yl]amino}-1-phenylethanol]: the IC50 was > 10000 nM.
On the same count and under the same terms, the same measure for `O[C@@H](CNc1cc(-c2ccc(C(F)(F)F)c(Cl)c2)nc(N2CCC2)n1)c1ccccc1` [Example 161, (1R)-2-({2-Azetidin-1-yl-6-[3-chloro-4-(trifluoromethyl)phenyl]pyrimidin-4-yl}amino)-1-Phenylethanol trifluoroacetic acid salt]: 580 nM.

The target of the next assay is T2, FAAH (Homo sapiens, UniProt O00519).
T2 sequence (O00519 1-579): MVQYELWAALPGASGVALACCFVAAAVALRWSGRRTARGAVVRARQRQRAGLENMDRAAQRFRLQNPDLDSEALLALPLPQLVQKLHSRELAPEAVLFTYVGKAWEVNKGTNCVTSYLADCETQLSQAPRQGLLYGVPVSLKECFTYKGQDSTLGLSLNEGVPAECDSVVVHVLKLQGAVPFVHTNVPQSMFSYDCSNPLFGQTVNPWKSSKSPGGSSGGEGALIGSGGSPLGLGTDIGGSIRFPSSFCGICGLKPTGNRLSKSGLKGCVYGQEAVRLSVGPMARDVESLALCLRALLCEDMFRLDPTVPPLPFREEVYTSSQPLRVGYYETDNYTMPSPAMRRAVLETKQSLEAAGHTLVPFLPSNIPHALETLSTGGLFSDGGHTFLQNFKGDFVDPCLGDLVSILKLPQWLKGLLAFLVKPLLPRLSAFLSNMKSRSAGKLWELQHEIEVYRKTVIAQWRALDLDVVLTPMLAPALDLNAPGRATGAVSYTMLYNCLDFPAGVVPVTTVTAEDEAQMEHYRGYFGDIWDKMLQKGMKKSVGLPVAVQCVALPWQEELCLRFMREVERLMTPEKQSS
Description: Assay Method 1: FAAH assay, 3H-anandamide hydrolysis in homogenate of T84 cells or SK-N-MC cells transfected with human FAAH.
Details: not given
On to `COc1ccc(C(O)CNc2cc(-c3ccc(C(F)(F)F)c(Cl)c3)ncn2)cc1Cl` (centres unmarked) [Example 203, 1-(3-Chloro-4-methoxyphenyl)-2-({6-[3-chloro-4-(trifluoromethyl)phenyl]pyrimidin-4-yl}amino)ethanol], for which the IC50 is 270 nM.
`NS(=O)(=O)c1ccc(-c2cc(NC[C@H](O)c3ccccc3)ncn2)cc1` [Example 81, 4-(6-{[(2R)-2-Hydroxy-2-phenylethyl]amino}pyrimidin-4-yl)benzenesulfonamide] yielded an IC50 of 110 nM.
On the same count and under the same terms, the same measure for `CNc1nc(NC[C@H](O)c2ccccc2)cc(-c2ccc(C(F)(F)F)c(Cl)c2)n1` [Example 141, (1R)-2-({6-[3-Chloro-4-(trifluoromethyl)phenyl]-2-(methylamino)pyrimidin-4-yl}amino)-1-phenylethanol trifluoroacetic acid salt]: 12 nM; for `OC(CNc1cc(-c2ccccc2)ncn1)c1ccccc1` (centres unmarked) [Example 243, 1-Phenyl-2-(6-phenyl-pyrimidin-4-ylamino)-ethanol]: > 10000 nM; for `COc1cc(OC(F)(F)F)ccc1-c1cc(NC[C@H](O)c2ccccc2)ncn1` [Example 153, (1R)-2-({6-[2-Methoxy-4-(trifluoromethoxy)phenyl]pyrimidin-4-yl}amino)-1-phenylethanol trifluoroacetic acid salt]: 303 nM.
Compound `OC(CNc1cc(-c2ccc(C(F)(F)F)c(Cl)c2)ncn1)c1cccc(SC(F)(F)F)c1` (centres unmarked) [Example 198, 2-({6-[3-chloro-4-(trifluoromethyl)phenyl]pyrimidin-4-yl}amino)-1-[3-[(trifluoromethyl)sulfanyl]phenyl]ethanol] came in with an IC50 of 92 nM.
As for `CCOc1cccc(-c2cc(NC[C@H](O)c3ccccc3)ncn2)c1` [Example 97, (1R)-2-{[6-(3-Ethoxyphenyl)pyrimidin-4-yl]amino}-1-phenylethanol], the midpoint of inhibition, the IC50, lay at 580 nM.
Same read-out and setting: then `CCCOc1cccc(-c2cc(NC[C@H](O)c3ccccc3)ncn2)c1` [Example 98, (1R)-1-Phenyl-2-{[6-(3-propoxyphenyl)pyrimidin-4-yl]amino}ethanol], with 850 nM.
Still for that read-out and setting: the same measure for `Oc1ccc(C(O)CNc2cc(-c3ccc(OC(F)(F)F)cc3)ncn2)cc1` (centres unmarked) [Example 110, 4-{1-Hydroxy-2-[(6-{4-[(trifluoromethyl)oxy]phenyl}pyrimidin-4-yl)amino]ethyl}phenol]: 5000 nM; for `COc1ccc(-c2cc(NCC(O)c3ccccc3)ncn2)cc1` (centres unmarked) [Example 147, 2-({6-[4-(Methyloxy)phenyl]pyrimidin-4-yl}amino)-1-phenylethanol]: 205 nM; for `OC(CNc1cc(-c2ccc(Oc3ccccc3)cc2)ncn1)c1ccccc1` (centres unmarked) [Example 13, 1-Phenyl-2-({6-[4-(phenyloxy)phenyl]pyrimidin-4-yl}amino)ethanol]: 35 nM.
Still for that read-out and setting: then `COc1ccc(-c2cc(NCC(O)c3ccccc3)ncn2)cc1OC` (centres unmarked) [Example 229, 2-[6-(3,4-Dimethoxy-phenyl)-pyrimidin-4-ylamino]-1-phenyl-ethanol], with 408 nM.
For the compound `CC(O)(CNc1cc(-c2ccc(C(F)(F)F)c(Cl)c2)ncn1)c1ccccc1` (centres unmarked) [Example 166, 1-({6-[3-Chloro-4-(trifluoromethyl)phenyl]pyrimidin-4-yl}amino)-2-Phenylpropan-2-ol], the 50% inhibitory concentration (IC50) was determined as 3000 nM.
The compound `CCCCOc1ccc(-c2cc(NC[C@H](O)c3ccccc3)ncn2)cc1` [Example 34, (1R)-2-{[6-(4-Butoxyphenyl)pyrimidin-4-yl]amino}-1-phenylethanol trifluoroacetic acid salt] registered an IC50 of 500 nM.
`O=S(=O)(NC1CC1)c1ccc(-c2cc(NC[C@H](O)c3ccccc3)ncn2)cc1` [Example 67, N-Cyclopropyl-4-(6-{[(2R)-2-hydroxy-2-phenylethyl]amino}pyrimidin-4-yl)benzenesulfonamide] showed an IC50 of 20 nM.
In the case of `CCOc1ccc(-c2cc(NC[C@H](O)c3ccccc3)ncn2)c(C)c1` [Example 154, (1R)-2-{[6-(4-Ethoxy-2-methylphenyl)pyrimidin-4-yl]amino}-1-phenylethanol trifluoroacetic acid salt], the IC50 came out at 65 nM.
The same measure, in the same setting: the same measure for `O[C@@H](CNc1cc(-c2cccc(OCC(F)(F)F)c2)ncn1)c1ccccc1` [Example 25, (1R)-1-Phenyl-2-[(6-{3-[(2,2,2-trifluoroethyl)oxy]phenyl}pyrimidin-4-yl)amino]ethanol]: 390 nM; for `O=Cc1cccc(-c2cc(NC[C@H](O)c3ccccc3)ncn2)c1` [Example 23, 3-(6-{[(2R)-2-Hydroxy-2-phenylethyl]amino}pyrimidin-4-yl)benzaldehyde]: 5000 nM; for `Nc1cccc(-c2cc(NCC(O)c3ccccc3)ncn2)c1` (centres unmarked) [Example 240, 2-[6-(3-Amino-phenyl)-pyrimidin-4-ylamino]-1-phenyl-ethanol]: > 10000 nM.
Same read-out and setting: the same measure for `O[C@@H](CNc1cc(-c2cnn(Cc3ccccc3)c2)ncn1)c1ccccc1` [Example 74, (1R)-2-{[6-(1-Benzyl-1H-pyrazol-4-yl)pyrimidin-4-yl]amino}-1-phenylethanol]: 101 nM.
The same measure, in the same setting: then `OC(CNc1cc(-c2ccc(OC(F)(F)F)cc2)ncn1)c1ccccn1` (centres unmarked) [Example 123, 1-Pyridin-2-yl-2-[(6-{4-[(trifluoromethyl)oxy]phenyl}pyrimidin-4-yl)amino]ethanol], with 700 nM; and `Cc1cccc(-c2cc(NCC(O)c3ccccc3)ncn2)c1` (centres unmarked) [Example 148, 2-{[6-(3-Methylphenyl)pyrimidin-4-yl]amino}-1-phenylethanol], with 3000 nM; and `Cc1cc(-c2cc(NC[C@H](O)c3ccccc3)ncn2)cc(C)c1OC(C)C` [Example 52, (1R)-2-({6-[3,5-Dimethyl-4-(1-methylethoxy)phenyl]pyrimidin-4-yl}amino)-1-phenylethanol trifluoroacetic acid salt], with 1400 nM.
Take `OC(CNc1cc(-c2cccc(Cl)c2)ncn1)c1ccccc1` (centres unmarked) [Example 9, 2-{[6-(3-Chlorophenyl)pyrimidin-4-yl]amino}-1-Phenylethanol]: half-maximal inhibition (IC50) required 467 nM.
Still for that read-out and setting: then `C[S+]([O-])c1nc(NC[C@H](O)c2ccccc2)cc(-c2ccc(C(F)(F)F)c(Cl)c2)n1` (stereo partly drawn) [Example 139, (1R)-2-({6-[3-Chloro-4-(trifluoromethyl)phenyl]-2-(methylsulfinyl)pyrimidin-4-yl}amino)-1-phenylethanol], with 2000 nM; and `OC(CNc1cc(-c2cccc(OC(F)(F)F)c2)ncn1)c1ccccc1` (centres unmarked) [Example 149, 1-Phenyl-2-[(6-{3-[(trifluoromethyl)oxy]phenyl}pyrimidin-4-yl)amino]ethanol], with 412 nM; and `CS(=O)(=O)c1nc(NC[C@H](O)c2ccccc2)cc(-c2ccc(C(F)(F)F)c(Cl)c2)n1` [Example 138, (1R)-2-({6-[3-Chloro-4-(trifluoromethyl)phenyl]-2-(methylsulfonyl)pyrimidin-4-yl}amino)-1-phenylethanol], with 371 nM.

The same assay, now with this note: read-out: Assay 1 IC50; Table 2, Comparative Examples; human FAAH.
Regarding `Nc1cccc(-c2cc(NCC(O)c3ccccc3)ncn2)c1` (centres unmarked) [CE8, 2-[6-(3-Amino-phenyl)-pyrimidin-4-ylamino]-1-phenyl-ethanol, reference compound], the IC50 was > 10000 nM.
On the same count and under the same terms, then `OC(CNc1cc(-c2ccccc2)ncn1)c1ccccc1` (centres unmarked) [CE3, 1-Phenyl-2-(6-phenyl-pyrimidin-4-ylamino)-ethanol, reference compound], with > 10000 nM.
